The target in the test is PIK3CA (human) (UniProt P42336). The experiment in a line: Cell-Based Assay. The settings on record: bt20.

pIC50: −log10 of the molar value.

Chain of PIK3CA (human) (P42336 whole entry, looked up): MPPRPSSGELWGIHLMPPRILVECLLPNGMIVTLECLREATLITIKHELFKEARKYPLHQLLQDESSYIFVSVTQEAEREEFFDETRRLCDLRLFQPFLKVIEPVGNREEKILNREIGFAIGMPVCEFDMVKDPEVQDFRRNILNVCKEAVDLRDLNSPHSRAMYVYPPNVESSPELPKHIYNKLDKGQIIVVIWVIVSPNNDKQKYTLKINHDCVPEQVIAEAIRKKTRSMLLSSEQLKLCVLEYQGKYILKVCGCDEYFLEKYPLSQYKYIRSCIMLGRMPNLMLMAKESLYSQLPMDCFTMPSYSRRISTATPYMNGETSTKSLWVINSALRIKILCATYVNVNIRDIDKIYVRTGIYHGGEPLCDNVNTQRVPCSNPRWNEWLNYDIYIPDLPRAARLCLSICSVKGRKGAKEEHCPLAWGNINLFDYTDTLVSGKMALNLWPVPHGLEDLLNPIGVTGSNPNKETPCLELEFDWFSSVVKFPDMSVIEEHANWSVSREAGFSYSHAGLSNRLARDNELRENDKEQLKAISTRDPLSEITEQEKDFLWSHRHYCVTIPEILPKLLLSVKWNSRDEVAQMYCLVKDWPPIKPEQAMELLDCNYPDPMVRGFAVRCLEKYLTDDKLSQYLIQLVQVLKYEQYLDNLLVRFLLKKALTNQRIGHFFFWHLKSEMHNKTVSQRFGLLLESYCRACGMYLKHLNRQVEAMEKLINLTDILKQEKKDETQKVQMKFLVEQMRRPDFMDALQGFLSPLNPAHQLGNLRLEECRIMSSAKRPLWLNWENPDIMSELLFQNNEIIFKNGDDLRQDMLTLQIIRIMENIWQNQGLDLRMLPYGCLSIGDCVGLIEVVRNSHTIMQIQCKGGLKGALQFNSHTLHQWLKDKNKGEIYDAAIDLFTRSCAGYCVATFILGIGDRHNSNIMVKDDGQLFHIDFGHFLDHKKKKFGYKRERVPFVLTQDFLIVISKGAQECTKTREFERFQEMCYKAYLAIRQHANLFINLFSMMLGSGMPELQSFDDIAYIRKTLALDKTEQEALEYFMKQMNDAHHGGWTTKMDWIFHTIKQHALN

The pIC50 is the IC50 on a negative log10 scale, so that one unit is a factor of ten. `Cn1cc(-c2ccc3ncc4c(c3n2)n(C2CCN(CC(F)(F)F)CC2)c(=O)n4C)cn1` had a pIC50 of 6.71. In the case of `Cn1c(=O)n(C2CCN(CC(F)(F)F)CC2)c2c3nc(-c4cnc5ccccc5c4)ccc3ncc21` it was 7.83; in that of `CCC(=O)N1CCC(n2c(=O)n(C)c3cnc4ccc(-c5cnc6ccccc6c5)nc4c32)CC1`, 8.10; in that of `Cc1ccc(-c2ccc3ncc4c(c3n2)n(C2CCN(C(N)=O)CC2)c(=O)n4C)cn1`, 6.95. In the case of `CN1CCC(n2c(=O)n(C)c3cnc4ccc(-c5cnc6[nH]ncc6c5)nc4c32)CC1`, the pIC50 was 7.66.

Consider `COc1ccc(-c2ccc3ncc4[nH]c(=O)n(Cc5ccccc5)c4c3n2)cn1`, for which the pIC50 is 7.61. The pIC50 values of the last two compounds are within 0.2 log units of each other. `CN(C)C(=O)CN1CCC(n2c(=O)n(C)c3cnc4ccc(-c5cnn(C)c5)nc4c32)CC1` had a pIC50 of 6.61. Regarding `Cc1ccc(-c2ccc3ncc4c(c3n2)n([C@H]2CC[C@H](O)CC2)c(=O)n4C)cn1`, the pIC50 is 7.73. This pIC50 is 1.12 log units higher than that of the compound before. In the case of `CNC(=O)N1CCC(n2c(=O)n(C)c3cnc4ccc(-c5cnc(OC)nc5)nc4c32)CC1` it was 7.17; in that of `Cn1cc(-c2ccc3ncc4c(c3n2)n([C@H]2CC[C@H](O)CC2)c(=O)n4C)cn1`, 6.97. The compound `COc1ccc(-c2ccc3ncc4c(c3n2)n([C@H](C)CO)c(=O)n4C)cn1` had a pIC50 of 6.63. Under `COc1ncc(-c2ccc3ncc4c(c3n2)n(C2CCN(C(=O)CO)CC2)c(=O)n4C)cn1` stands 7.57; under `CC(=O)N1CCC(n2c(=O)n(C)c3cnc4ccc(-c5cnn(C)c5)nc4c32)CC1`, 6.88; under `Cc1ccc(-c2ccc3ncc4c(c3n2)n(C2CCOCC2)c(=O)n4C)cn1`, 7.56.

On to `Cn1c(=O)n(-c2ccc(C(C)(C)C#N)cc2)c2c3nc(-c4cnc5ccccc5c4)ccc3ncc21`, for which the pIC50 was 8.45. `CN(C)c1ccc(-c2ccc3ncc4c(c3n2)n(C2CCN(C(N)=O)CC2)c(=O)n4C)cn1` showed a pIC50 of 7.45. Under `CC(=O)N1CCC(n2c(=O)n(C)c3cnc4ccc(-c5ccc(N(C)C)nc5)nc4c32)CC1` stands 7.76. Under `COc1ncc(-c2ccc3ncc4c(c3n2)n([C@H]2CC[C@H](OCCO)CC2)c(=O)n4C)cn1` stands 7.58; under `Cc1ccc(-c2ccc3ncc4c(c3n2)n([C@H]2CC[C@H](OCCO)CC2)c(=O)n4C)cn1`, 8.06; under `COc1ncc(-c2ccc3ncc4c(c3n2)n(C2CCN(CCO)CC2)c(=O)n4C)cn1`, 6.91. Under `C[C@H](O)C(=O)N1CCC(n2c(=O)n(C)c3cnc4ccc(-c5ccnc6[nH]ncc56)nc4c32)CC1` stands 6.66; under `CN(C)c1ccc(-c2ccc3ncc4c(c3n2)n(C2CCNCC2)c(=O)n4C)cn1`, 7.61. With `Cc1ccc(-c2ccc3ncc4c(c3n2)n(C2CCNCC2)c(=O)n4C)cn1`, the pIC50 was 7.00. Under `COc1ccc(-c2ccc3ncc4c(c3n2)n(C2CCN(C(=O)[C@H](C)O)CC2)c(=O)n4C)cc1` stands 7.85; under `Cc1ccc(-c2ccc3ncc4c(c3n2)n([C@H](C)CO)c(=O)n4C)cn1`, 6.57; under `CNC(=O)Nc1ccc(-c2ccc3ncc4c(c3n2)n(C2CCN(C(=O)[C@H](C)O)CC2)c(=O)n4C)cc1`, 7.09. `COc1ccc(-c2ccc3ncc4c(c3n2)n(C2CCN(CC(N)=O)CC2)c(=O)n4C)cn1`: the pIC50 was 8.15. Under `Cn1c(=O)n([C@H]2CC[C@H](OCCO)CC2)c2c3nc(-c4cnc5ccccc5c4)ccc3ncc21` stands 7.97; under `Cc1ccc(-c2ccc3ncc4c(c3n2)n(C2CCN(c3ncccn3)CC2)c(=O)n4C)cn1`, 7.38. In the case of `Cn1c(=O)n(C2CCOCC2)c2c3nc(-c4ccn[nH]4)ccc3ncc21` it was 6.51; in that of `COc1cccc(-c2ccc3ncc4c(c3n2)n(C2CCN(C(=O)CO)CC2)c(=O)n4C)c1`, 7.52; in that of `CC(=O)N1CCC(n2c(=O)n(C)c3cnc4ccc(-c5ccc(S(C)(=O)=O)cc5)nc4c32)CC1`, 5.59.

In turn, `Cn1cc(-c2ccc3ncc4c(c3n2)n(C2CCN(C(=O)C(C)(C)O)CC2)c(=O)n4C)cn1` had a pIC50 of 7.52. The compound `O=C(OCc1ccccc1)N1CCC(n2c(=O)[nH]c3cnc4ccc(-c5cnc6ccccc6c5)nc4c32)CC1` showed a pIC50 of 7.49. Under `Cc1ccc(-c2ccc3ncc4c(c3n2)n(C2CCN(C)CC2)c(=O)n4C)cn1` stands 7.64; under `Cn1cc(-c2ccc3ncc4c(c3n2)n(-c2ccc(C(C)(C)C#N)cc2)c(=O)n4C)cn1`, 6.94. In the case of `COCC(=O)N1CCC(n2c(=O)n(C)c3cnc4ccc(-c5cnc(OC)nc5)nc4c32)CC1` it was 7.91. Under `COc1ncc(-c2ccc3ncc4c(c3n2)n(C2CCN(C(=O)[C@H](C)O)CC2)c(=O)n4C)cn1` stands 7.47. Take `C[C@H](CO)n1c(=O)n(C)c2cnc3ccc(-c4cnc5[nH]ncc5c4)nc3c21`: the pIC50 was 7.08. `COc1ccc(-c2ccc3ncc4c(c3n2)n(C2CCOCC2)c(=O)n4C)cn1` gave a pIC50 of 7.73. As to `C[C@@H](O)C(=O)N1CCC(n2c(=O)n(C)c3cnc4ccc(-c5ccc(N(C)C)nc5)nc4c32)CC1`, the pIC50 was 8.26. This pIC50 is 0.53 log units higher than that of the compound before. In the case of `COc1ncc(-c2ccc3ncc4c(c3n2)n(-c2ccc(C(C)(C)C#N)cc2)c(=O)n4C)cn1` it was 7.57. In the case of `CN[C@H]1CC[C@H](n2c(=O)n(C)c3cnc4ccc(-c5cnc6ccccc6c5)nc4c32)CC1` it was 6.39; in that of `CN(C)c1ccc(-c2ccc3ncc4c(c3n2)n(C2CCN(CC(F)(F)F)CC2)c(=O)n4C)cn1`, 7.74; in that of `N[C@H]1CC[C@H](n2c(=O)[nH]c3cnc4ccc(-c5cnc6ccccc6c5)nc4c32)CC1`, 6.40. Under `CN(C)CC(=O)N1CCC(n2c(=O)n(C)c3cnc4ccc(-c5cnc6ccccc6c5)nc4c32)CC1` stands 7.74. Regarding `CNC(=O)N1CCC(n2c(=O)n(C)c3cnc4ccc(-c5ccc(N(C)C)nc5)nc4c32)CC1`, the pIC50 is 7.61. Under `Cn1cc(-c2ccc3ncc4c(c3n2)n(C2CCN(CC(N)=O)CC2)c(=O)n4C)cn1` stands 6.63; under `COc1ncc(-c2ccc3ncc4c(c3n2)n(C2CCN(C)CC2)c(=O)n4C)cn1`, 6.80; under `CCNC(=O)Nc1ccc(-c2ccc3ncc4c(c3n2)n(C2CCN(C(=O)OC(C)(C)C)CC2)c(=O)n4C)cc1`, 7.40. In the case of `COc1ncc(-c2ccc3ncc4c(c3n2)n(C2CCOCC2)c(=O)n4C)cn1` it was 7.00.

These data come from the Kinase Knowledgebase extract (Sharma et al. 2016).
